Assay results as given in patent EP4707280A1, “1,4-CINEOLE DERIVATIVE AND INTERMEDIATE THEREOF, HERBICIDE CONTAINING SAID DERIVATIVE AS ACTIVE INGREDIENT, METHOD FOR USING HERBICIDE, AND METHOD FOR PREPARING AGROCHEMICAL COMPOSITION” (HOKKO CHEMICAL INDUSTRY CO., LTD., priority 2023, dated 2024).

Legend:
Format in all cases: in vivo
[1] = system: Echinochloa crus-galli; assay: Test Example 4: herbicidal effect test by stem and leaf treatment in upland field; conditions: Echinochloa crus-galli; 120 g per 10 ares; sprayed seven days after sowing, upland soil; 14 days after application; read-out: weed inhibition rate
[2] = system: Scirpus juncoides; assay: Test Example 1: herbicidal effect test by soil application in paddy rice; conditions: Schoenoplectiella juncoides, soil, 336 h; 120 g active ingredient per 10 ares; applied immediately after sowing, flooded pots; 14 days after application; read-out: weed inhibition rate
Summary of the method: (§1)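 Pre-emergence paddy soil application, 120 g a.i./10 a, emulsifiable concentrate diluted in water, applied by dropper right after sowing. Seeds (30/species) sown 0–1 cm in puddled, fertilized soil; flooded ~3 cm; glass greenhouse.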

[3] = system: Echinochloa crus-galli var. formosensis; assay: as above; conditions: Echinochloa crus-galli, soil, 336 h; 120 g active ingredient per 10 ares; applied immediately after sowing, flooded pots; 14 days after application; read-out: weed inhibition rate
Summary of the method: as §1

[4] = system: Digitaria ciliaris; assay: Test Example 4: herbicidal effect test by stem and leaf treatment in upland field; conditions: Digitaria ciliaris; 120 g per 10 ares; sprayed seven days after sowing, upland soil; 14 days after application; read-out: weed inhibition rate
[5] = system: Echinochloa crus-galli; assay: Test Example 8: herbicidal effect test by stem and leaf treatment in upland field (low dose); conditions: Echinochloa crus-galli; 7.5 g per 10 ares; sprayed seven days after sowing, upland soil; 14 days after application; read-out: weed inhibition rate
[6] = system: Digitaria ciliaris; assay: as above; conditions: Digitaria ciliaris; 7.5 g per 10 ares; sprayed seven days after sowing, upland soil; 14 days after application; read-out: weed inhibition rate
[7] = system: Echinochloa crus-galli; assay: Test Example 3: herbicidal effect test by soil application in upland field; conditions: Echinochloa crus-galli, 120 g per 10 ares, sprayed one day after sowing, 14 days after application, read-out: weed inhibition rate
Summary of the method: (§2)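 Weed inhibition (%) was assessed 14 days after treatment, in duplicate per concentration group. Seeds had been mixed into the upper 1 cm of upland alluvial loam, and the soil surface was sprayed one day later with the diluted emulsifiable concentrate at 120 g active ingredient per 10 ares.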

[8] = system: Digitaria ciliaris; assay: as above; conditions: Digitaria ciliaris, 120 g per 10 ares, sprayed one day after sowing, 14 days after application, read-out: weed inhibition rate
Summary of the method: as §2

[9] = system: Scirpus juncoides; assay: Test Example 2: herbicidal effect test by application during growth period of paddy rice; conditions: Schoenoplectiella juncoides; 120 g per 10 ares; applied seven days after sowing, flooded pots; 14 days after application; read-out: weed inhibition rate
Summary of the method: (§3)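 Weeds sown into puddled, flooded paddy soil received a post-emergence water application of emulsifiable concentrate at 120 g active ingredient per 10 ares, seven days after sowing. Herbicidal effect was rated 14 days later as inhibition (%).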

[10] = system: Echinochloa crus-galli var. formosensis; assay: as above; conditions: Echinochloa crus-galli; 120 g per 10 ares; applied seven days after sowing, flooded pots; 14 days after application; read-out: weed inhibition rate
Summary of the method: as §3

[11] = system: Echinochloa crus-galli var. formosensis; assay: Test Example 6: herbicidal effect test by application during growth period of paddy rice (low dose); conditions: Echinochloa crus-galli; 7.5 g per 10 ares; applied seven days after sowing, flooded pots; 14 days after application; read-out: weed inhibition rate
Summary of the method: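 Emulsifiable concentrate, water-diluted, dropped onto flooded paddy pots 7 days post-sowing at 7.5 g active ingredient/10 a. Greenhouse-grown weeds; percent inhibition scored at day 14 after treatment.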

[12] = system: Echinochloa crus-galli; assay: Test Example 7: herbicidal effect test by soil application in upland field (low dose); conditions: Echinochloa crus-galli, 7.5 g per 10 ares, sprayed one day after sowing, 14 days after application, read-out: weed inhibition rate
Summary of the method: (§4)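 Low-dose soil treatment at 7.5 g a.i. per 10 a, applied as a diluted emulsifiable concentrate sprayed onto the soil surface one day after sowing in upland alluvial loam. Duplicate pots; percent weed inhibition is read 14 days after application.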

[13] = system: Digitaria ciliaris; assay: as above; conditions: Digitaria ciliaris, 7.5 g per 10 ares, sprayed one day after sowing, 14 days after application, read-out: weed inhibition rate
Summary of the method: as §4

[14] = system: Echinochloa crus-galli var. formosensis; assay: Test Example 5: herbicidal effect test by soil application in paddy rice (low dose); conditions: Echinochloa crus-galli, soil, 336 h; 7.5 g per 10 ares; applied immediately after sowing, flooded pots; 14 days after application; read-out: weed inhibition rate
Summary of the method: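 Pots of puddled, fertilized paddy soil receive 30 seeds per species at 0–1 cm depth and are flooded to about 3 cm. The diluted emulsifiable concentrate is then dropped onto the water, delivering 7.5 g active ingredient per 10 ares. Greenhouse grown; herbicidal effect scored 14 days later, two replicates.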

Cc1ccccc1CO[C@@H]1C[C@]2(C(C)C)O[C@@]1(C)C[C@@H]2Cl [1-9, (1R,2S,4S,5R)-2-chloro-1-isopropyl-4-methyl-5-(o-tolylmethoxy)-7-oxabicyclo[2.2.1]heptane]
≥ 80%: inhibition at 1200 g/ha [1] | pest or weed control at 1200 g/ha [2] | pest or weed control at 1200 g/ha [3] | inhibition at 1200 g/ha [4] | inhibition at 75 g/ha [5] | inhibition at 75 g/ha [6] | inhibition at 1200 g/ha [7] | inhibition at 1200 g/ha [8] | inhibition at 1200 g/ha [9] | inhibition at 1200 g/ha [10] | inhibition at 75 g/ha [11] | inhibition at 75 g/ha [12] | inhibition at 75 g/ha [13] | inhibition at 75 g/ha [14]

CC(C)[C@]12C[C@@H](OCc3ccccn3)[C@](C)(C[C@@H]1Cl)O2 [1-658, 2-[[(1S,2R,4R,5S)-5-chloro-4-isopropyl-1-methyl-7-oxabicyclo[2.2.1]heptan-2-yl]oxymethyl]pyridine]
≥ 80%: inhibition at 1200 g/ha [1] | pest or weed control at 1200 g/ha [2] | pest or weed control at 1200 g/ha [3] | inhibition at 1200 g/ha [4] | inhibition at 75 g/ha [5] | inhibition at 75 g/ha [6] | inhibition at 1200 g/ha [7] | inhibition at 1200 g/ha [8] | inhibition at 1200 g/ha [9] | inhibition at 1200 g/ha [10] | inhibition at 75 g/ha [11] | inhibition at 75 g/ha [12] | inhibition at 75 g/ha [13] | inhibition at 75 g/ha [14]

CC(C)[C@]12CC(OCc3c(Cl)cccc3Cl)[C@](C)(C[C@@H]1I)O2 (mixture of isomers) [1-779, (1R,2S,4S,SR)-5-[(2,6-dichlorophenyl)methoxy]-2-iodo-1-isopropyl-4-methyl-7-oxabicyclo[2.2.1]heptane]
≥ 80%: inhibition at 1200 g/ha [1] | pest or weed control at 1200 g/ha [2] | pest or weed control at 1200 g/ha [3] | inhibition at 1200 g/ha [4] | inhibition at 75 g/ha [5] | inhibition at 75 g/ha [6] | inhibition at 1200 g/ha [7] | inhibition at 1200 g/ha [8] | inhibition at 1200 g/ha [9] | inhibition at 1200 g/ha [10] | inhibition at 75 g/ha [11] | inhibition at 75 g/ha [12] | inhibition at 75 g/ha [13] | inhibition at 75 g/ha [14]

CC(C)C12CC(OCc3ccccc3)C(C)(CC1Br)O2 (stereo not shown) [1-1342, 5-bromo-1-methyl-2-phenylmethoxy-4-isopropyl-7-oxabicyclo[2.2.1]heptane]
≥ 80%: inhibition at 1200 g/ha [1] | pest or weed control at 1200 g/ha [2] | pest or weed control at 1200 g/ha [3] | inhibition at 1200 g/ha [4] | inhibition at 75 g/ha [5] | inhibition at 75 g/ha [6] | inhibition at 1200 g/ha [7] | inhibition at 1200 g/ha [8] | inhibition at 1200 g/ha [9] | inhibition at 1200 g/ha [10] | inhibition at 75 g/ha [11] | inhibition at 75 g/ha [12] | inhibition at 75 g/ha [13] | inhibition at 75 g/ha [14]

CC(C)[C@]12C[C@@H](OCc3c(F)cccc3F)[C@](C)(C[C@@H]1Cl)O2 [1-14, (1R,2S,4S,5R)-2-chloro-5-[(2,6-difluorophenyl)methoxy]-1-isopropyl-4-methyl-7-oxabicyclo[2.2.1]heptane]
≥ 80%: inhibition at 1200 g/ha [1] | pest or weed control at 1200 g/ha [2] | pest or weed control at 1200 g/ha [3] | inhibition at 1200 g/ha [4] | inhibition at 75 g/ha [5] | inhibition at 75 g/ha [6] | inhibition at 1200 g/ha [7] | inhibition at 1200 g/ha [8] | inhibition at 1200 g/ha [9] | inhibition at 1200 g/ha [10] | inhibition at 75 g/ha [11] | inhibition at 75 g/ha [12] | inhibition at 75 g/ha [13] | inhibition at 75 g/ha [14]
